Laboratory results taken from article PMC7316778 (Nature Communications, 2020).
Where two headings read alike, the source gives them in different places.

How the values were obtained:
Assay in all cases: SelectScreen kinase assay
MAP3K11 (MLK3) = MAP3K11 (MLK3) (Homo sapiens, UniProt Q16584)
Procedure: (§1) Selectivity profiling assays were performed by the Invitrogen SelectScreen™ Services. […] The concentration of ATP was selected to be equal to the KM, unless indicated otherwise.

CDK11/cyclin C = CDK11/cyclin C (Homo sapiens, UniProt Q9BWU1); conditions: for Inhibition at 1 µM (%): CDK11/cyclin C, LanthaScreen Binding
Procedure: as §1

MAPK12 (p38 gamma) = target: T1, MAPK12 (p38 gamma) (Homo sapiens, UniProt P53778)
T1 sequence (P53778 1-367): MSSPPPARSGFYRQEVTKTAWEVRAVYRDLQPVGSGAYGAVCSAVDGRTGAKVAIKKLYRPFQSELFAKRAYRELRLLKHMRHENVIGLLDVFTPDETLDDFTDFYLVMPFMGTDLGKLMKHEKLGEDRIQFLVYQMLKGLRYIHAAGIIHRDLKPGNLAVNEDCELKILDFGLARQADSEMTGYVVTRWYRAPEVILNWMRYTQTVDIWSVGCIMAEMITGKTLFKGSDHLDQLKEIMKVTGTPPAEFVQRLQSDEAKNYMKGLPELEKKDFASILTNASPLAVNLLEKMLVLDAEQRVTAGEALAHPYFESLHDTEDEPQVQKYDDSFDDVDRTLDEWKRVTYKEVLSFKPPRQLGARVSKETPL
Procedure: as §1

MAP2K3 (MEK3) = target: T2, MAP2K3 (MEK3) (Homo sapiens, UniProt P46734)
T2 sequence (P46734 1-347): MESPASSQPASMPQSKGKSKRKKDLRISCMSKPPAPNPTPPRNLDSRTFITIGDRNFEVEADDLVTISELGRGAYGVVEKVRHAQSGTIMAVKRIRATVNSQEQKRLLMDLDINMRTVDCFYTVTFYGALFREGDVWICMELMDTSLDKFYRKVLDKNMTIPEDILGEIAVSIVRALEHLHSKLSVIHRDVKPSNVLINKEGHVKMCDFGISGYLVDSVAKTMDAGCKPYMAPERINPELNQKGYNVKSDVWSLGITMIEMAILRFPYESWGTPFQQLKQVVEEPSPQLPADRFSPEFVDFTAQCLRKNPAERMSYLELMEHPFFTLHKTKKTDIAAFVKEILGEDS
Procedure: as §1

HIPK1 (Myak) = HIPK1 (Myak) (Homo sapiens, UniProt Q86Z02); conditions: for Inhibition at 1 µM (%): HIPK1 (Myak), ZLYTE, ATP Km app
Procedure: as §1

EEF2K = target: T3, EEF2K (Homo sapiens, UniProt O00418)
T3 sequence (O00418 1-725): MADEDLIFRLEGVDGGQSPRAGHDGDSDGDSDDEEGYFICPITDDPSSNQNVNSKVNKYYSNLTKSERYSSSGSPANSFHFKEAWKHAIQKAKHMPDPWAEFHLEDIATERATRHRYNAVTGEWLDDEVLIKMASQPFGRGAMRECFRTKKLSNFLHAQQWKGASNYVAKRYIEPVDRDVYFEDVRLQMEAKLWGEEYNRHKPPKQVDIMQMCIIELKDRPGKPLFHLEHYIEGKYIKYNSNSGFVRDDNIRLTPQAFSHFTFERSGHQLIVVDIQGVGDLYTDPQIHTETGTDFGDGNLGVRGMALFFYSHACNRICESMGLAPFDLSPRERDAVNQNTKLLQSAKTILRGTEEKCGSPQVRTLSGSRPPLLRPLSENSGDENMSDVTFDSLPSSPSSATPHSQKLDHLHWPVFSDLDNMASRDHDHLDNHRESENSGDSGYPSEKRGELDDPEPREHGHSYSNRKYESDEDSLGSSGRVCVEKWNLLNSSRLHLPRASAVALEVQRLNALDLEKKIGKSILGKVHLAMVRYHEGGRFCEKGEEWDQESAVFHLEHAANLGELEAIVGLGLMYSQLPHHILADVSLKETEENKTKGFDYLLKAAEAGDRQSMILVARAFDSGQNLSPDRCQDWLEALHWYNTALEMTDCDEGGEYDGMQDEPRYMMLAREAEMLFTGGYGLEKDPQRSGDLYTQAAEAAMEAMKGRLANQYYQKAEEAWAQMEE
Procedure: as §1

FGFR2 = FGFR2 (Homo sapiens, UniProt P21802); conditions: for Inhibition at 1 µM (%): FGFR2, ZLYTE, ATP Km app
Procedure: as §1

WEE1 = WEE1 (Homo sapiens, UniProt P30291)
Procedure: as §1

NTRK1 (TRKA) = NTRK1 (TRKA) (Homo sapiens, UniProt P04629)
Procedure: as §1

EPHA2 = EPHA2 (Homo sapiens, UniProt P29317)
Procedure: as §1

HCK = HCK (Homo sapiens, UniProt P08631)
Procedure: as §1

[1] = 1 h, 1 μM WEL028, 1 h preincubation

FGFR2, sequence (P21802 22-821): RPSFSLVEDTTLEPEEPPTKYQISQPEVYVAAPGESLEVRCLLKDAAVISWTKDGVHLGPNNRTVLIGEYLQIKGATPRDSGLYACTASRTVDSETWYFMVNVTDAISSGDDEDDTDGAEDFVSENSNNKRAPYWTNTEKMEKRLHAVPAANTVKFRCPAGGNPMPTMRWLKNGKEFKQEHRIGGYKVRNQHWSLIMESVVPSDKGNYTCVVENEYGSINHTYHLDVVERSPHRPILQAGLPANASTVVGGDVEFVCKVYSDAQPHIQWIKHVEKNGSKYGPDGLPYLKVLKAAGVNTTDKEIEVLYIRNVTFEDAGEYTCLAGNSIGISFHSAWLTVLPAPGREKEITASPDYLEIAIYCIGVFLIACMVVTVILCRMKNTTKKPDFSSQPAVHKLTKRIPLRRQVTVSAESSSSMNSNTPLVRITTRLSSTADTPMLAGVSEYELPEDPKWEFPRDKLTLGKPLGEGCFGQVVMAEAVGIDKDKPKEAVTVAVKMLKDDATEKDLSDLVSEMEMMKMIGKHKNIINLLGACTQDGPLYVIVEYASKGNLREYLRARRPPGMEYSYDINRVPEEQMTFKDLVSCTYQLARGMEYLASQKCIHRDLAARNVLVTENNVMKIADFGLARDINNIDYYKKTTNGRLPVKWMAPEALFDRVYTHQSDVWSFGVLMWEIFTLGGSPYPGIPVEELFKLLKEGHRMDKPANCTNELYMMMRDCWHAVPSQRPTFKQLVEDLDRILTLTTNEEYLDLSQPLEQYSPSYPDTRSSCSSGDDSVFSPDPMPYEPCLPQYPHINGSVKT
CDK11/cyclin C, sequence (Q9BWU1 whole entry): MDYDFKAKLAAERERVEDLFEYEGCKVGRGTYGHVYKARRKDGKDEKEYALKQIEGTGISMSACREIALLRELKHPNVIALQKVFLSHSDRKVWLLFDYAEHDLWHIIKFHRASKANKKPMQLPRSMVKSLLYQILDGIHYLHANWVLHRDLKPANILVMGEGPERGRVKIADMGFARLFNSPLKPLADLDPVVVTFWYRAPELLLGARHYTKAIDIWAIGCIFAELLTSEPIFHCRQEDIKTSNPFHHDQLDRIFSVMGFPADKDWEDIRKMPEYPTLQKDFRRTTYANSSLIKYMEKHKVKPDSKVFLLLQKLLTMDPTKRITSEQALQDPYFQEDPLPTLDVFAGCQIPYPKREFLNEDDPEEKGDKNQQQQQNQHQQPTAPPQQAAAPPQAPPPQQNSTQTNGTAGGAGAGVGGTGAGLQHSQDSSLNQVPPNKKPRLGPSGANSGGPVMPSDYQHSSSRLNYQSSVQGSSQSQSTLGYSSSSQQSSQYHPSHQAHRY
CDK11/cyclin C, sequence (P24863 whole entry partner): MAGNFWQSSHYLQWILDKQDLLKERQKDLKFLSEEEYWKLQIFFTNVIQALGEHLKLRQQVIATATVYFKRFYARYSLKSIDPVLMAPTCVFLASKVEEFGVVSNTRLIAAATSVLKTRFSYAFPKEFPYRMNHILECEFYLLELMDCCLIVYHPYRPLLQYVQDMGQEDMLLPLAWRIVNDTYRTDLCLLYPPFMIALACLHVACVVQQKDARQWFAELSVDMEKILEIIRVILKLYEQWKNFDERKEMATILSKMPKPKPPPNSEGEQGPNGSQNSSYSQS
NTRK1 (TRKA), sequence (P04629 33-796): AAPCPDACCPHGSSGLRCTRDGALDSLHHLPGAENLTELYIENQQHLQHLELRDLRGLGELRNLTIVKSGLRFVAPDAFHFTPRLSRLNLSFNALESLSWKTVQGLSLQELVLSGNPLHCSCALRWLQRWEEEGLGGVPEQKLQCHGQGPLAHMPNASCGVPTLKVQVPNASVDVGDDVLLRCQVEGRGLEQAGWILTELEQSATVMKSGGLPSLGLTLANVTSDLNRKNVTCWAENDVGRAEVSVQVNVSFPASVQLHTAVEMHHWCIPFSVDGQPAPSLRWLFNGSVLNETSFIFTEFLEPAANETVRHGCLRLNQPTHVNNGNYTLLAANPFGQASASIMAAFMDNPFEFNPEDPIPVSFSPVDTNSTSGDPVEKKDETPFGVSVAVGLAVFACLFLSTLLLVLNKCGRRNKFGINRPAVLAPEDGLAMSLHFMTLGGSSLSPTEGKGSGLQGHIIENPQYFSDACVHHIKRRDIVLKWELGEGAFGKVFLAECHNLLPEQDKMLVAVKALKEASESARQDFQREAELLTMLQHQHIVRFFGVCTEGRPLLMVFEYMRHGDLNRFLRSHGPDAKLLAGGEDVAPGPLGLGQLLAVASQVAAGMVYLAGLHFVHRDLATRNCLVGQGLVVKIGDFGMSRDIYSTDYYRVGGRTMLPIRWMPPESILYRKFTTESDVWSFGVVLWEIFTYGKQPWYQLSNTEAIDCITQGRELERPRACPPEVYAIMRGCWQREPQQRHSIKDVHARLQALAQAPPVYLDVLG
HCK, sequence (P08631 whole entry): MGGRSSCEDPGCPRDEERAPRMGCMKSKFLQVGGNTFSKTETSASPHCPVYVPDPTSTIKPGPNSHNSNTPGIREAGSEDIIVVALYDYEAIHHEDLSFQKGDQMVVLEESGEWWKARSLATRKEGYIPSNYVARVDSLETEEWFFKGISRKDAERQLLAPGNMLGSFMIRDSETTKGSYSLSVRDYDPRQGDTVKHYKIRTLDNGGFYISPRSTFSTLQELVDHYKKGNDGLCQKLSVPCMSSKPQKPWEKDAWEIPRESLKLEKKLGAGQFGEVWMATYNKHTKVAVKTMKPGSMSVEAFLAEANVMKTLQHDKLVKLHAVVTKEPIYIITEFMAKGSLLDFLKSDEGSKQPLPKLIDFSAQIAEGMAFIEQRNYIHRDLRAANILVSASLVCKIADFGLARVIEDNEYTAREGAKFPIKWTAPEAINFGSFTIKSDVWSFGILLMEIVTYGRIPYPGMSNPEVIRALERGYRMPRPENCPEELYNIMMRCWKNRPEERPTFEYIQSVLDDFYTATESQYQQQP
HIPK1 (Myak), sequence (Q86Z02 whole entry): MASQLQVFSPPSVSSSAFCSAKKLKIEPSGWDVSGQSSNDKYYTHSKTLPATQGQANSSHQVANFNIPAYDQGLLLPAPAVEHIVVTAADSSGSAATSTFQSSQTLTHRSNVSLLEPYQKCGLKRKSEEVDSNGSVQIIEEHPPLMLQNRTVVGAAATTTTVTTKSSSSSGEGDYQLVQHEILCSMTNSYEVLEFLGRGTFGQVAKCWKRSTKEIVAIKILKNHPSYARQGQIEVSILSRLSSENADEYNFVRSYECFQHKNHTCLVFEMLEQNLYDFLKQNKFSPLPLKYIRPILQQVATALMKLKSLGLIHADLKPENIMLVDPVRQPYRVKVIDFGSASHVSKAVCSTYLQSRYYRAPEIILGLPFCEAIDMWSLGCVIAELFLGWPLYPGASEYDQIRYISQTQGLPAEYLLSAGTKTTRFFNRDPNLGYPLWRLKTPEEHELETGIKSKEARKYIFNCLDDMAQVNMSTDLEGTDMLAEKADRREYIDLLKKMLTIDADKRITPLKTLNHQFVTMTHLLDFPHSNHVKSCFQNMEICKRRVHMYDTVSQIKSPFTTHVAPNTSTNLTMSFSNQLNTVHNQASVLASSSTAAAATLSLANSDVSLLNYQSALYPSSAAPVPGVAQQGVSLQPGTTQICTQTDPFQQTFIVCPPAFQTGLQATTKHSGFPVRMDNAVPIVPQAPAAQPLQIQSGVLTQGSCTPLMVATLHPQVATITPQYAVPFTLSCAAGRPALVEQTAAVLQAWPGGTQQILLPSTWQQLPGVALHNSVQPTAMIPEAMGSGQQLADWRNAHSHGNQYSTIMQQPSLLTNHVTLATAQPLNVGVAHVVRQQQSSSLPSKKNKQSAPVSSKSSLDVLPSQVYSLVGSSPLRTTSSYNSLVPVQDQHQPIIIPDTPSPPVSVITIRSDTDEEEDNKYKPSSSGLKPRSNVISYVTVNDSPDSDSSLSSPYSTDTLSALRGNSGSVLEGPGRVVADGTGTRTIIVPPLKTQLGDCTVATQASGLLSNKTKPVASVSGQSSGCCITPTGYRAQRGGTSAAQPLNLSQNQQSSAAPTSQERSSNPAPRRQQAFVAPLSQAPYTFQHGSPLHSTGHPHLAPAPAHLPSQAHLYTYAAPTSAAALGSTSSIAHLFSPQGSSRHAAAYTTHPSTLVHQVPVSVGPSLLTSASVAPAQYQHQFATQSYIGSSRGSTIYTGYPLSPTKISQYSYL
MAP3K11 (MLK3), sequence (Q16584 whole entry): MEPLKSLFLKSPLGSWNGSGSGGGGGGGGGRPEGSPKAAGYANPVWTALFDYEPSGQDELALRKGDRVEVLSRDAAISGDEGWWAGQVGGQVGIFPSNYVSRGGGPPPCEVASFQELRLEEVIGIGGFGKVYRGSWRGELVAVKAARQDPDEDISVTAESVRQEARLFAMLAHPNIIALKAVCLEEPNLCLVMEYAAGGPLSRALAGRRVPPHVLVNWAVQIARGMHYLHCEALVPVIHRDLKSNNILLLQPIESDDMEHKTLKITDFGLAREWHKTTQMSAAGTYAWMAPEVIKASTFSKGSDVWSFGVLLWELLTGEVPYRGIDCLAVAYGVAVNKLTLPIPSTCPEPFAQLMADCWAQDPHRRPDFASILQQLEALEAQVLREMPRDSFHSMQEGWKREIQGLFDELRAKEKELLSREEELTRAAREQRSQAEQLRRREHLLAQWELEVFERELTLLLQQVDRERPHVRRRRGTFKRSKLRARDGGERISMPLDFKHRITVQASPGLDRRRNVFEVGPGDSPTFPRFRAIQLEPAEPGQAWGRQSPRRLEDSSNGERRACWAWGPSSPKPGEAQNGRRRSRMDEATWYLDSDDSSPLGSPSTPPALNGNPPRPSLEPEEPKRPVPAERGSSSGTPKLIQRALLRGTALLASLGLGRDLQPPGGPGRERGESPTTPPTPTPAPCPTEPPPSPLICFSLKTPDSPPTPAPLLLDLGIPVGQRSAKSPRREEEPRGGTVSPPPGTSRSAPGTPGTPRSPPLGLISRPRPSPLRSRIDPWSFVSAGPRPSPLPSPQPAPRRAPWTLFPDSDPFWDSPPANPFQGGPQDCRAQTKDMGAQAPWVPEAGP

For `C#CCOc1ccc(Nc2ncc(Cl)c(Nc3ccccc3NC(=O)C=C)n2)c(OC)c1` [Compound 6], the “Inhibition at 1 µM (%)” value (MAP3K11 (MLK3); MAP3K11 (MLK3), LanthaScreen Binding, listed as WEL028, 1 µM) was 6%, the inhibition at 1 µM (MAP3K11 (MLK3); read-out: Inhibition at 1 µM (%), MAP3K11 (MLK3), LanthaScreen Binding) was 7% and the “Inhibition (%)” value (CDK11/cyclin C; 1 μM WEL028, 1 h preincubation) was 5%. The “Inhibition at 1 µM (%)” value (CDK11/cyclin C) was 2%, the “Inhibition at 1 µM (%)” value (CDK11/cyclin C; listed as WEL028, 1 µM) was 7% and the inhibition at 1 µM (MAPK12 (p38 gamma); [1]) was 10%. For the same molecule, the “Inhibition at 1 µM (%)” value (MAPK12 (p38 gamma); MAPK12 (p38 gamma), 1 µM, ZLYTE, ATP Km app, listed as WEL028, 1 µM) was 7%, the inhibition at 1 µM (MAPK12 (p38 gamma); read-out: Inhibition at 1 µM (%), MAPK12 (p38 gamma), 1 µM, ZLYTE, ATP Km app) was 12% and the inhibition at 1 µM (MAP2K3 (MEK3); [1]) was 46%. The “Inhibition at 1 µM (%)” value (MAP2K3 (MEK3); MAP2K3 (MEK3), 1 µM, LanthaScreen Binding, listed as WEL028, 1 µM) was 53%, the inhibition at 1 µM (MAP2K3 (MEK3); read-out: Inhibition at 1 µM (%), MAP2K3 (MEK3), 1 µM, LanthaScreen Binding) was 38% and the inhibition at 1 µM (HIPK1 (Myak); [1]) was -4%. The “Inhibition at 1 µM (%)” value (HIPK1 (Myak)) was -2%, the “Inhibition at 1 µM (%)” value (HIPK1 (Myak); listed as WEL028, 1 µM) was -6% and the inhibition at 1 µM (EEF2K; [1]) was 9%. For the same molecule, the “Inhibition at 1 µM (%)” value (EEF2K; EEF2K, 1 µM, ZLYTE, ATP Km app, listed as WEL028, 1 µM) was 7%, the inhibition at 1 µM (EEF2K; read-out: Inhibition at 1 µM (%), EEF2K, 1 µM, ZLYTE, ATP Km app) was 12% and the inhibition at 1 µM (FGFR2; [1]) was 7%. For the same molecule, the “Inhibition at 1 µM (%)” value (FGFR2) was 11%, the “Inhibition at 1 µM (%)” value (FGFR2; listed as WEL028, 1 µM) was 4% and the “Inhibition at 1 µM (%)” value (WEE1; 1 µM, LanthaScreen Binding) was -14%. The inhibition at 1 µM (WEE1; [1]) was -5%, the inhibition at 1 µM (NTRK1 (TRKA); [1]) was 17% and the “Inhibition at 1 µM (%)” value (NTRK1 (TRKA); NTRK1 (TRKA), 1 µM, ZLYTE, ATP Km app, listed as WEL028, 1 µM) was 16%. For the same molecule, the inhibition at 1 µM (NTRK1 (TRKA); read-out: Inhibition at 1 µM (%), NTRK1 (TRKA), 1 µM, ZLYTE, ATP Km app) was 17%, the inhibition at 1 µM (EPHA2; [1]) was 7% and the “Inhibition at 1 µM (%)” value (EPHA2; EPHA2, 1 µM, ZLYTE, ATP Km app) was 13%. The inhibition at 1 µM (HCK; [1]) was 6%, the “Inhibition at 1 µM (%)” value (HCK; HCK, 1 µM, ZLYTE, ATP Km app, listed as WEL028, 1 µM) was 7% and the inhibition at 1 µM (HCK; read-out: Inhibition at 1 µM (%), HCK, 1 µM, ZLYTE, ATP Km app) was 4%.
